The text below walks through data of ChEMBL document CHEMBL5316290, “Targeted Protein Degradation Induced by HEMTACs Based on HSP90” (J Med Chem, 2023).

pEC50, pIC50: −log10 of the molar value. Calls of active or inactive are those of the source. No cut-off for these calls is given here.

The subject of assay [1] is B16-F10. Put plainly: Binding affinity to HSP90/CDK4 in mouse B16-F10 assessed as ternary complex formation at 5 uM incubated for 6 hrs by co-immunoprecipitation assay. The assay is classed as cell-based.
For assay [2], the system named is B16-F10. Description: Anticancer activity against mouse B16-F10 cells implanted in C57BL/6J mouse assessed as reduction in CDK4/6 positive cells in tumor at 20 mg/kg, ip administered once daily for 2 weeks and measured every 2 days by immunohistochemical analysis. The assay is classed as functional, organism-based.
Assay [3] addresses HSP90/Cyclin-dependent kinase 4 (Mus musculus, UniProt P07901+P11499+P30285). Description: HEMTAC activity at HSP90/CDK4 in mouse B16-F10 cells assessed as induction of CDK4 degradation incubated for 24 hrs by Western blot analysis. The assay is classed as cell-based. (In general: A western blot detects proteins with antibodies after separation by electrophoresis.)
Assay [4] concerns the target HSP90/Cyclin-dependent kinase 6 (Mus musculus, UniProt P07901+P11499+Q64261). Put plainly: HEMTAC activity at HSP90/CDK6 in mouse B16-F10 cells assessed as induction of […] degradation incubated for 24 hrs by Western blot analysis. The assay is classed as cell-based.
Another assay concerns MDA-MB-231. Put plainly: Cytotoxicity against human MDA-MB-231 cells assessed as inhibition of cell growth incubated for 72 hrs by CCK-8 assay. The assay is classed as functional, cell-based. The settings on record: MDA-MB-231, 72 h. In general terms: Tetrazolium dyes change colour on reduction, which living cells bring about.
The test system of assay [5] is B16-F10. Description: Induction of cell cycle arrest in mouse B16-F10 cells assessed as accumulation of cells at S phase at 125 nM incubated for 24 hrs by RNase/PI staining based flow cytometry analysis (reference value: 12.45%). The assay is classed as functional. Background: A flow cytometer gives signals particle by particle.
For assay [6], the system named is B16-F10. Put plainly: Induction of cell cycle arrest in mouse B16-F10 cells assessed as accumulation of cells at G2 phase at 125 nM incubated for 24 hrs by RNase/PI staining based flow cytometry analysis (reference value: 16.13%). The assay is classed as functional.
The test system of assay [7] is B16-F10. Put plainly: Induction of apoptosis in mouse B16-F10 cells assessed as live cells at 125 nM incubated for 48 hrs by Annexin V-FITC/PI staining based flow cytometry analysis (reference value: 92.85 %). The assay is classed as functional.
For assay [8], the target named is HSP90/Cyclin-dependent kinase 4 (Mus musculus) (UniProt P30285+P07901+P11499). Put plainly: HEMTAC activity at HSP90/CDK4 in mouse B16-F10 cells assessed as induction of CDK4 degradation by measuring maximal degradation incubated for 24 hrs by Western blot analysis relative to control. The assay is classed as cell-based.
Chain of HSP90/Cyclin-dependent kinase 4 (Mus musculus) (P30285 2-303 limits assumed, other chains not shown): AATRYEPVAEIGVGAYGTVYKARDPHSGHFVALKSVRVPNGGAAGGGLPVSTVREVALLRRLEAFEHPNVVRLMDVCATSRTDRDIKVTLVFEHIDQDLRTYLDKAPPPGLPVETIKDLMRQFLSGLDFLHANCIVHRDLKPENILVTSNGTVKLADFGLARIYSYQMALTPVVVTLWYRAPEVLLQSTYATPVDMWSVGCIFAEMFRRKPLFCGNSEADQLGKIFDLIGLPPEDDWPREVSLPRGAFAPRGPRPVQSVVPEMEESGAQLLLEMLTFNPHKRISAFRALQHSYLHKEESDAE
Chain of HSP90/Cyclin-dependent kinase 4 (Mus musculus) (P11499 2-724 partner limits assumed, other chains not shown): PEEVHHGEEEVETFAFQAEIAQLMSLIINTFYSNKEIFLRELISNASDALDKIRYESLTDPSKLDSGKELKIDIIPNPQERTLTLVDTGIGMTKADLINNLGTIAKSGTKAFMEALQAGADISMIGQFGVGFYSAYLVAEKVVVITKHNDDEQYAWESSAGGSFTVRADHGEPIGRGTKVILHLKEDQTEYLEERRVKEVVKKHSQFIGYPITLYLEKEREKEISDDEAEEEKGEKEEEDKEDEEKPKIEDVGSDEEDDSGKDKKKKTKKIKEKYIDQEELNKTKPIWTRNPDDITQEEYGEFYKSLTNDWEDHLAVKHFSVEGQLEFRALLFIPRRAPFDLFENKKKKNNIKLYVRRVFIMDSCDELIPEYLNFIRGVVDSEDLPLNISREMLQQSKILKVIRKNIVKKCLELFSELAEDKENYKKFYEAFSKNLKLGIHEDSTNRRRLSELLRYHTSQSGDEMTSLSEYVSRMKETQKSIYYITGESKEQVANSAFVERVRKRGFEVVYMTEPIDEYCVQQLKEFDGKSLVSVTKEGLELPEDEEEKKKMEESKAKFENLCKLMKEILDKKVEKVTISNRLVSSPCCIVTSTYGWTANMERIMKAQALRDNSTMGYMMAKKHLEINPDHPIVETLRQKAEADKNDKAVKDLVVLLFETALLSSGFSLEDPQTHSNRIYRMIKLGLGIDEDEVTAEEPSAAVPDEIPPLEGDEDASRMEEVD
For assay [9], the system named is B16-F10. Description: Inhibition of colony formation in mouse B16-F10 cells at 0.25 to 1 uM incubated for 7 days with media replacement for every 2 days by crystal violet staining based analysis. The assay is classed as functional, cell-based. The settings on record: dose 0.25-1 µM, time 7.0 day.
A further assay deals with A-375. Description: Cytotoxicity against human A-375 cells assessed as inhibition of cell growth incubated for 72 hrs by CCK-8 assay. The assay is classed as functional, cell-based. The settings on record: A-375, 72 h.
Assay [10] relates to B16-F10. Description: Induction of cell cycle arrest in mouse B16-F10 cells assessed as accumulation of cells at G1 phase at 125 nM incubated for 24 hrs by RNase/PI staining based flow cytometry analysis (reference value: 68.89%). The assay is classed as functional.
The next assay deals with HepG2. Description: Cytotoxicity against human HepG2 cells assessed as inhibition of cell growth incubated for 72 hrs by CCK-8 assay. The assay is classed as functional, cell-based. Particulars: HepG2, 72 h.

Chain of HSP90/Cyclin-dependent kinase 4 (P30285 whole entry, other chains not shown): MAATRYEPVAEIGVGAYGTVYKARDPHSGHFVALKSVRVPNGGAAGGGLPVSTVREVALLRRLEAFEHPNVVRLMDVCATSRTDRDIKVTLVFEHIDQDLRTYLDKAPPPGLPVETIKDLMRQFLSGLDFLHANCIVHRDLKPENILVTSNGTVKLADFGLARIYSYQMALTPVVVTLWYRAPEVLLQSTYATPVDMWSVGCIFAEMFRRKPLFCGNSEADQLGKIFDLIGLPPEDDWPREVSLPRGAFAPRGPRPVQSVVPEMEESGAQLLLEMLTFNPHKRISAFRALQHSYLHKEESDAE
Chain of HSP90/Cyclin-dependent kinase 4 (P11499 whole entry, other chains not shown): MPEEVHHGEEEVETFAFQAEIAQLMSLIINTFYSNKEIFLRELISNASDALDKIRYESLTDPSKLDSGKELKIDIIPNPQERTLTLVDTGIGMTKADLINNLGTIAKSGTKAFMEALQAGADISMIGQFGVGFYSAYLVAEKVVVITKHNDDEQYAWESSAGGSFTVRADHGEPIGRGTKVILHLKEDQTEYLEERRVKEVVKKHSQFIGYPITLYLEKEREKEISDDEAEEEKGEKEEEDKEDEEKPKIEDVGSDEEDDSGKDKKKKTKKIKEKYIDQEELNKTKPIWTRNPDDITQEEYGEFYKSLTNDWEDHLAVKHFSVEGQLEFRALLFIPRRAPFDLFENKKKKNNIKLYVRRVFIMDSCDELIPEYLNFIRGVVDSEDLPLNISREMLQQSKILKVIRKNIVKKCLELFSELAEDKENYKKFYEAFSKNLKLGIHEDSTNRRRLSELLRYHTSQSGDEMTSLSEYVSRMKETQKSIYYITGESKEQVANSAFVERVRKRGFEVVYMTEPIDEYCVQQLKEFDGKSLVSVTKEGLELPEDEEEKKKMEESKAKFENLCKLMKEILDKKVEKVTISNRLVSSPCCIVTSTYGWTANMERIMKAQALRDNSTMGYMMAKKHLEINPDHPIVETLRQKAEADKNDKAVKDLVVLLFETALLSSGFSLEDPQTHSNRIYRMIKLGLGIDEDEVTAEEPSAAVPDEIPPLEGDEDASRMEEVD
Chain of HSP90/Cyclin-dependent kinase 6 (Q64261 whole entry, other chains not shown): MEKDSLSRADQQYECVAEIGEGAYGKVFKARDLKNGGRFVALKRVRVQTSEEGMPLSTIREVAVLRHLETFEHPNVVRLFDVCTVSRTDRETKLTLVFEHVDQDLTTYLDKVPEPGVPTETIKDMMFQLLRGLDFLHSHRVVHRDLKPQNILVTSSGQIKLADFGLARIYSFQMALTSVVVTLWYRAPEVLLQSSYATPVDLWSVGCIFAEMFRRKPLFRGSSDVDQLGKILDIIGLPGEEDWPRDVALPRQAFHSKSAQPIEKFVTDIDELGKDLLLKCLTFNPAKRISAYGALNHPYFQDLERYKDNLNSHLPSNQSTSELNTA
Chain of HSP90/Cyclin-dependent kinase 6 (P11499 whole entry, other chains not shown): as the sequence (P11499 whole entry, other chains not shown) above

Take `COc1c(C)cnc(Cn2cc(C#CCCn3cc(CNC(=O)CN4CCN(c5ccc(Nc6ncc7c(C)c(C(C)=O)c(=O)n(C8CCCC8)c7n6)nc5)CC4)nn3)c3c(Cl)nc(N)nc32)c1C`: the result in the assay with B16-F10 [1] and with B16-F10 [2] was Active. The negative logarithm of the EC50 (pEC50) – broadly, the EC50 on a negative log10 scale, so that one unit is a factor of ten – was 7.59 in assay [3] and 7.72 in [4]. Also, the negative-log IC50 (pIC50) (usually the negative decadic logarithm of the IC50, by convention in mol/L) is 6.50 in the assay on MDA-MB-231, 6.90 in the assay with A-375 and 6.30 in the assay with HepG2. Moreover, the Activity in the assay with B16-F10 [5] is 7.58%; with B16-F10 [6], 18.05%; in the assay with B16-F10 [7], 72.27%; in the assay on B16-F10 [10], 74.01%. Further, the Emax – broadly, the greatest response seen or fitted, relative to the assay's reference – in [8] worked out at 88%. Also, in the assay on B16-F10 [9], the inhibition result is “Active”.
